Assay results: patent US11753407B2, “Compounds for treating spinal muscular atrophy” (PTC Therapeutics, Inc., priority 2012, dated 2023)

Legend:
[1] = system: Smn protein in SMA patient fibroblast cells (GM03813); experiment: Smn protein assay in cultured cells (SMN HTRF); type: cell-based, human; conditions: 48 hours; for Smn protein expression: SMA Type 1 patient fibroblast cells, SMN HTRF assay (FIG. 8); for EC1.5x for Smn protein expression / maximum fold (Fold) increase of Smn protein: SMA patient fibroblast cells; for EC1.5x for Smn protein expression: 7-point concentration curve, SMN HTRF, concentration producing 1.5 times Smn protein vs DMSO vehicle control; for maximum fold (Fold) increase of Smn protein: 7-point concentration data, fold relative to vehicle control
Procedure, shortened: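 Cells were cultured 72 h, seeded at 5,000/well and dosed with seven concentrations (3.16-fold apart) for 48 h. HTRF on lysates, read at 665 and 620 nm, gave blank-corrected ΔF values relative to DMSO. Potency is reported as EC1.5×, efficacy as maximal fold Smn increase.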

[2] = system: Smn protein in human motor neurons derived from SMA iPS cells; experiment: Smn protein assay in human motor neurons; type: cell-based; conditions: 72 hours, increasing concentrations (FIG. 10)
Experimental: Smn immunofluorescent confocal microscopy is used to quantify the level of Smn protein in human motor neurons treated with test compounds.
Protocol. Human motor neurons derived from SMA iPS cells (Ebert et al., Nature, 2009, […]; and, Rubin et al., BMC Biology, 2011, 9:42) are treated with test compound at various concentrations for 72 hours. The level of Smn protein in the cell nucleus is quantified using Smn immunostaining and confocal fluorescence microscopy essentially as described in Makhortova et al., Nature Chemical Biology, 2011, 7:544. The level of Smn protein in compound-treated samples is normalized to that in vehicle-treated samples and plotted as a function of the compound concentration.

| Structure (SMILES) | Smn protein expression [1] | EC1.5x for Smn protein expression [1] | maximum fold (Fold) increase of Smn protein [1] | Smn protein in the nucleus [2] |
| --- | --- | --- | --- | --- |
| COc1ccc(-c2cc(=O)n3cc(N4CCNCC4)ccc3n2)cc1OC [Cpd 6, 2-(3,4-dimethoxyphenyl)-7-(piperazin-1-yl)-4H-pyrido[1,2-a]pyrimidin-4-one] | dose dependent increase in Smn protein expression | *** (an EC1.5× between >0.3 μM and ≤1 μM is indicated by three stars (***)) | **** (a fold increase between >1.5 and ≤1.65 is indicated by four stars (****)) | progressively more Smn protein in the nucleus |
| Cc1cn2nc(-c3cc(=O)n4cc(N5CCN(C)CC5)ccc4n3)cc2c(C)n1 [Cpd 170, 2-(4,6-dimethylpyrazolo[1,5-a]pyrazin-2-yl)-7-(4-methylpiperazin-1-yl)-4H-pyrido[1,2-a]pyrimidin-4-one] | dose dependent increase in Smn protein expression | **** (an EC1.5x≤0.3 μM is indicated by four stars (****)) | ***** (a fold increase >1.65 is indicated by five stars (*****)) | – |
